# Data as given in patent US9303012B2, “Pyridine-2-amides useful as CB2 agonists” (Hoffmann-La Roche Inc., priority 2012, dated 2016).
# Experiments:
# [1] = molecular target: human CB2 receptors (Homo sapiens (Human), UniProt P34972); assay: functional cAMP assay, CHO cells expressing human CB2 receptors; format: cell-based
# In short: (§1)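 Compound exposure lasted 30 min at 30 °C in IBMX (1 mM)-containing Krebs Ringer bicarbonate buffer, applied to human CB1- or CB2-expressing CHO cells. Lysates were read by time-resolved FRET cAMP detection, converted via cAMP standard curve (10 μM–0.13 nM), and EC50 values calculated.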
# [2] = molecular target: human CB1 receptors (Homo sapiens (Human), UniProt P21554); assay: functional cAMP assay, CHO cells expressing human CB1 receptors; format: cell-based
# In short: as §1
# Sequence of human CB1 receptors (P21554 whole entry): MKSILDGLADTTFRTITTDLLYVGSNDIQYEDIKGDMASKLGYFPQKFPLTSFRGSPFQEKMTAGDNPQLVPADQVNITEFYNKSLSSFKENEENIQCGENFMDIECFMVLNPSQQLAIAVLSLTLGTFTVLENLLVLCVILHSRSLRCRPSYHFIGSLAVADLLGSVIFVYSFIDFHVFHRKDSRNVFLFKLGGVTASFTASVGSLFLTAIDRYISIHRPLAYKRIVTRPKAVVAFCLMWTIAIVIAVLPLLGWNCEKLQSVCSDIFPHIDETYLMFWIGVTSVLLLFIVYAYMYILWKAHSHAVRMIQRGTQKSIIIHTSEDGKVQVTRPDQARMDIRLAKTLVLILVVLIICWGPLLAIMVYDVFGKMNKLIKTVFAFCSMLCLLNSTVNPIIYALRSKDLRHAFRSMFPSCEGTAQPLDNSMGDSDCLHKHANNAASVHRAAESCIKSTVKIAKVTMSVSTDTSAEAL
# Sequence of human CB2 receptors (P34972 whole entry): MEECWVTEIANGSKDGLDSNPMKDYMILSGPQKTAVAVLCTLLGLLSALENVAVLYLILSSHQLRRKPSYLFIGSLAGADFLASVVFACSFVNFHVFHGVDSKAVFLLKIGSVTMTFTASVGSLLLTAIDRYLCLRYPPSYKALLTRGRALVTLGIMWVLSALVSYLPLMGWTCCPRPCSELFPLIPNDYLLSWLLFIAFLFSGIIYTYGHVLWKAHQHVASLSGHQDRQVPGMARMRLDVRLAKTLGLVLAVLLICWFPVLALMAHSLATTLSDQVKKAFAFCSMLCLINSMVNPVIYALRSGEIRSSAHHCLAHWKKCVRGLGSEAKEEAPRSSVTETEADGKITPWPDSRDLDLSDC
SMILES,EC50 [1],EC50 [2]
"Cc1nc([C@H](CC2CC2)N(C)C(=O)c2ccc(N3CC(F)(F)C3)c(OCC3CC3)n2)no1 [Example 32, 6-Cyclopropylmethoxy-5-(3,3-difluoro-azetidin-1-yl)-pyridine-2-carboxylic acid [(S)-2-cyclopropyl-1-(5-methyl-[1,2,4]oxadiazol-3-yl)-ethyl]-methyl-amide]",256 nM,> 10000 nM
"CC1(C)SCN(C(=O)c2ccc(N3CC(F)(F)C3)c(OCC3CC3)n2)[C@@H]1C(N)=O [Example 120, (R)-3-[6-Cyclopropylmethoxy-5-(3,3-difluoro-azetidin-1-yl)-pyridine-2-carbonyl]-5,5-dimethyl-thiazolidine-4-carboxylic acid amide]",42 nM,> 10000 nM
"O=C(c1ccc(N2CC(F)(F)C2)c(OCC2CC2)n1)N1CC(F)(CO)C1 [Example 148, [6-(Cyclopropylmethoxy)-5-(3,3-difluoroazetidin-1-yl)-2-pyridyl]-[3-fluoro-3-(hydroxymethyl)azetidin-1-yl]methanone]",451 nM,> 10000 nM
"O=C(c1ccc(N2CC(F)(F)C2)c(OCC2CC2)n1)N1CCC2(CC2)C1 [Example 104, (5-Aza-spiro[2.4]hept-5-yl)-[6-cyclopropylmethoxy-5-(3,3-difluoro-azetidin-1-yl)-pyridin-2-yl]-methanone]",7.4 nM,> 10000 nM
"NC(=O)[C@H]1CCCCN1C(=O)c1ccc(C2CC2)c(OCC2CC2)n1 [Example 91, (+)-1-(5-Cyclopropyl-6-cyclopropylmethoxy-pyridine-2-carbonyl)-piperidine-2-carboxylic acid amide]",893 nM,> 10000 nM
"CC1(O)CCN(C(=O)c2ccc(N3CC(F)(F)C3)c(OCC3CC3)n2)C1 (centres unmarked) [Example 37, [6-Cyclopropylmethoxy-5-(3,3-difluoro-azetidin-1-yl)-pyridin-2-yl]-(3-hydroxy-3-methyl-pyrrolidin-1-yl)-methanone]",364 nM,> 10000 nM
"NC(=O)[C@@H]1CC(F)(F)CN1C(=O)c1ccc(C2CC2)c(OCC2CC2)n1 [Example 68, (S)-1-(5-Cyclopropyl-6-cyclopropylmethoxy-pyridine-2-carbonyl)-4,4-difluoro-pyrrolidine-2-carboxylic acid amide]",2.7 nM,> 10000 nM
"CC1(C)CC(C2CCN(C(=O)c3ccc(N4CC(F)(F)C4)c(OCC4CC4)n3)CC2)C(=O)N1 (centres unmarked) [Example 58, 3-{1-[6-Cyclopropylmethoxy-5-(3,3-difluoro-azetidin-1-yl)-pyridine-2-carbonyl]-piperidin-4-yl}-5,5-dimethyl-pyrrolidin-2-one]",594 nM,> 10000 nM
"CN(C)C(=O)c1ccc(N2CC(F)(F)C2)c(OCC2CC2)n1 [Example 2, 6-Cyclopropylmethoxy-5-(3,3-difluoro-azetidin-1-yl)-pyridine-2-carboxylic acid dimethylamide]",297 nM,> 10000 nM
"NC(=O)C1CS(=O)(=O)CN1C(=O)c1ccc(C2(F)CCC2)c(OCC2CC2)n1 (centres unmarked) [Example 133, 3-[6-(Cyclopropylmethoxy)-5-(1-fluorocyclobutyl)pyridine-2-carbonyl]-1,1-dioxo-1,3-thiazolidine-4-carboxamide]",10.2 nM,> 10000 nM
"O=C(c1ccc(N2CC(F)(F)C2)c(OCC2CC2)n1)N1CCCC12CC2 [Example 57, (4-Aza-spiro[2.4]hept-4-yl)-[6-cyclopropylmethoxy-5-(3,3-difluoro-azetidin-1-yl)-pyridin-2-yl]-methanone]",1.8 nM,> 10000 nM
"O=C(c1ccc(N2CC(F)(F)C2)c(OCC2CC2)n1)N1CCCC12CCC2 [Example 101, (5-Aza-spiro[3.4]oct-5-yl)-[6-cyclopropylmethoxy-5-(3,3-difluoro-azetidin-1-yl)-pyridin-2-yl]-methanone]",4.9 nM,> 10000 nM
"CC(C)(C)N(CCC(N)=O)C(=O)c1ccc(N2CC(F)(F)C2)c(OCC2CC2)n1 [Example 72, 6-Cyclopropylmethoxy-5-(3,3-difluoro-azetidin-1-yl)-pyridine-2-carboxylic acid tert-butyl-(2-carbamoyl-ethyl)-amide]",664 nM,> 10000 nM
"NC(=O)[C@@H]1C[C@@H](F)CN1C(=O)c1ccc(N2CC(F)(F)C2)c(OCC2CC2)n1 [Example 126, (2S,4R)-1-[6-(Cyclopropylmethoxy)-5-(3,3-difluoroazetidin-1-yl)pyridine-2-carbonyl]-4-fluoropyrrolidine-2-carboxamide]",40 nM,> 10000 nM
"CN(C(=O)c1ccc(C2CC2)c(Cc2ccc(F)cc2)n1)C(C)(C)C [Example 5, 5-Cyclopropyl-6-(4-fluoro-benzyl)-pyridine-2-carboxylic acid tert-butyl-methyl-amide]",0.8 nM,268 nM
"CN(C(=O)c1ccc(N2CC(F)(F)C2)c(OCC2CC2)n1)C(C)(C)COC(=O)c1ccc(N2CC(F)(F)C2)c(OCC2CC2)n1 [Example 12, 6-Cyclopropylmethoxy-5-(3,3-difluoro-azetidin-1-yl)-pyridine-2-carboxylic acid 2-{[6-cyclopropylmethoxy-5-(3,3-difluoro-azetidin-1-yl)-pyridine-2-carbonyl]-methyl-amino}-2-methyl-propyl ester]",134 nM,> 10000 nM
"O=C(c1ccc(N2CC(F)(F)C2)c(OCC2CC2)n1)N1C[C@@H]2C[C@H]1CS2 [Example 62, [6-Cyclopropylmethoxy-5-(3,3-difluoro-azetidin-1-yl)-pyridin-2-yl]-(1S,4S)-2-thia-5-aza-bicyclo[2.2.1]hept-5-yl-methanone]",9.1 nM,> 10000 nM
"COCC(C)(C)N(C)C(=O)c1ccc(N2CC(F)(F)C2)c(OCC2CC2)n1 [Example 9, 6-Cyclopropylmethoxy-5-(3,3-difluoro-azetidin-1-yl)-pyridine-2-carboxylic acid (2-methoxy-1,1-dimethyl-ethyl)-methyl-amide]",3.8 nM,> 10000 nM
"CC(C)CS(=O)(=O)c1nc(C(=O)N2COCC2(C)C)ccc1C1CC1 [Example 31, [5-Cyclopropyl-6-(2-methyl-propane-1-sulfonyl)-pyridin-2-yl]-(4,4-dimethyl-oxazolidin-3-yl)-methanone]",82.1 nM,> 10000 nM
"NC(=O)[C@@H]1CC(F)(F)CN1C(=O)c1ccc(C2(O)CCC2)c(OCC2CC2)n1 [Example 129, (2S)-1-[6-(Cyclopropylmethoxy)-5-(1-hydroxycyclobutyl)pyridine-2-carbonyl]-4,4-difluoropyrrolidine-2-carboxamide]",75.8 nM,> 10000 nM
"Cc1cn(C)nc1N(C)C(=O)c1ccc(N2CC(F)(F)C2)c(OCC2CC2)n1 [Example 54, 6-Cyclopropylmethoxy-5-(3,3-difluoro-azetidin-1-yl)-pyridine-2-carboxylic acid (1,4-dimethyl-1H-pyrazol-3-yl)-methyl-amide]",462 nM,> 10000 nM
"CN(C(=O)c1ccc(N2CC(F)(F)C2)c(OCC2CC2)n1)C1(C(F)(F)F)CC1 [Example 16, 6-Cyclopropylmethoxy-5-(3,3-difluoro-azetidin-1-yl)-pyridine-2-carboxylic acid methyl-(1-trifluoromethyl-cyclopropyl)-amide]",8 nM,> 10000 nM
